Results: US8778966B2, “Quinolinone derivatives as PARP and tank inhibitors” (Janssen Pharmaceutica, NV, priority 2007, dated 2014)

What follows are compounds tested against T1, TANK-2 enzyme (Homo sapiens, UniProt Q9H2K2) (assay: In vitro Scintillation Proximity Assay (SPA) for TANK-2 inhibitory activity). Details: read-out: in vitro SPA assay TANK-2 pIC50 (converted).
T1 construct: made in house
T1 sequence (Q9H2K2 1-1166): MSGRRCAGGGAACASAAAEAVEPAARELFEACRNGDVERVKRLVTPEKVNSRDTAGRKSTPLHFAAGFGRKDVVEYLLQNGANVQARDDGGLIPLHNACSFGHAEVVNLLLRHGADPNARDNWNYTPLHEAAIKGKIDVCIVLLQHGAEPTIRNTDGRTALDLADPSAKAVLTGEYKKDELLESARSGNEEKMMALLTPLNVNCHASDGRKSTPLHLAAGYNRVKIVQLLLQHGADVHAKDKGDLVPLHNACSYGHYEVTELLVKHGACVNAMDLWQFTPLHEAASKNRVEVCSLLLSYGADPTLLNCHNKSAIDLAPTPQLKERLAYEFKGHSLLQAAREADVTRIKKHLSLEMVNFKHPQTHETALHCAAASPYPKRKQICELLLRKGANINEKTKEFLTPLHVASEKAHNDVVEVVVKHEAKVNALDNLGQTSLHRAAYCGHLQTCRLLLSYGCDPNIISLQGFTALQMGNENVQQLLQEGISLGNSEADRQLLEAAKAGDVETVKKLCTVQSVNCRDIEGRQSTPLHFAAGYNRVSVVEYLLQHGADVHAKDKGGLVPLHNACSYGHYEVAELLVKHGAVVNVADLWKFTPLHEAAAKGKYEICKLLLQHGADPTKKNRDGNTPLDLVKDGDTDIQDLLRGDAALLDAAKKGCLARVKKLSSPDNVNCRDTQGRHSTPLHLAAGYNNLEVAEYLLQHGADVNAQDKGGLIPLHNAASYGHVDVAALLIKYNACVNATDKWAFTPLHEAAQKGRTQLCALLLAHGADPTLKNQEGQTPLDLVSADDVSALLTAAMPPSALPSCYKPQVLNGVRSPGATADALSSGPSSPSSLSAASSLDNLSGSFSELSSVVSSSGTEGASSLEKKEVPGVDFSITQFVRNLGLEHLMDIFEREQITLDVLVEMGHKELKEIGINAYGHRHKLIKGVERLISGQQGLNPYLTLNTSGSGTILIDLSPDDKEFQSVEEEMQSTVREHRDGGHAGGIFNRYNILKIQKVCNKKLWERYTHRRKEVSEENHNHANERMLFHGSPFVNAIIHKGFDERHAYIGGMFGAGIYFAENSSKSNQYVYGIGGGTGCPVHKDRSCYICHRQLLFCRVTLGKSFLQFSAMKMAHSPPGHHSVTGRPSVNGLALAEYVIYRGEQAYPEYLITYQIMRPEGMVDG
Type: biochemical
In short: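 TANK-2 (8 μg/ml final) auto-poly(ADP-ribosyl)ation with [3H]-NAD+/NAD donor was run in Ni flash plates in Tris/HCl pH 7.4 buffer with DTT and MgCl2, 120 min at room temperature, then stopped with excess NAD and scintillation-counted. Blank-corrected cpm was expressed as % of enzyme control, and IC50 was linearly interpolated and reported as pIC50.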
For `CCc1cc2ccc(C(C)(C#N)Cc3cc(C#N)nc(N(C)C)c3)cc2[nH]c1=O` (centres unmarked) [Compound 325], the IC50 was 0.0631 µM.
Work on `CCc1cc2ccc(C(C)(C#N)Cc3cccc(NC)n3)cc2[nH]c1=O` (centres unmarked) [Compound 339] yielded an IC50 of 0.1 µM.
For `CCc1cc2ccc(C(C)(C#N)Cc3ccc4c(c3)OC(F)(F)O4)cc2[nH]c1=O` (centres unmarked) [Compound 346], the IC50 was 0.501 µM.
In the case of `CCc1cc2ccc(C(C)(C#N)Cc3c4ccccc4nn3C)cc2[nH]c1=O` (centres unmarked) [Compound 347], the IC50 is reported as 0.2 µM.
In the case of `CCc1cc2ccc(C(C)(C#N)Cc3cc(OC)nc(OC)c3)cc2[nH]c1=O` (centres unmarked) [Compound 350], the IC50 is reported as 0.126 µM.
Work on `CCc1cc2ccc(C(C)(C#N)Cc3cc(Cl)nc(OC)c3)cc2[nH]c1=O` (centres unmarked) [Compound 351] yielded an IC50 of 0.158 µM.
In the case of `CCc1cc2ccc(C(C)(C#N)Cc3cc(N(C)C)nc(OC)n3)cc2[nH]c1=O` (centres unmarked) [Compound 354], the IC50 is reported as 0.0794 µM.
For `CCc1cc2ccc(C(C)(C#N)Cc3nc(OC)cc(N(C)C)n3)cc2[nH]c1=O` (centres unmarked) [Compound 355], the IC50 was 0.158 µM.
Compound `CCc1cc2ccc(C(C)(C#N)Cc3cc(Cl)nc(C)n3)cc2[nH]c1=O` (centres unmarked) [Compound 365] has an IC50 of 0.0794 µM.
Compound `CCc1cc2ccc(C(C)(C#N)CN3CCC(c4ccccc4)CC3)cc2[nH]c1=O` (centres unmarked) [Compound 375] has an IC50 of 0.398 µM.
Work on `CCc1cc2ccc(C(C)(C#N)CN3CCN(c4ccc(C#N)cn4)CC3)cc2[nH]c1=O` (centres unmarked) [Compound 377] yielded an IC50 of 0.0501 µM.
`CCc1cc2ccc(C(C)(C#N)Cc3cc(Br)cc4c3OCC4)cc2[nH]c1=O` (centres unmarked) [Compound 378] was tested, and the IC50 was 0.251 µM.
`CCc1cc2ccc(C(C)(C#N)Cc3cccc4[nH]ccc34)cc2[nH]c1=O` (centres unmarked) [Compound 379] gave an IC50 of 0.1 µM.
`Cc1cc2ccc([C@](C)(C#N)[C@H]3CCc4ccccc43)cc2[nH]c1=O` [Compound 387] gave an IC50 of 2.51 µM.
Work on `Cc1cc2ccc(C(C)(C#N)C3CCc4ccccc43)cc2[nH]c1=O` (centres unmarked) [Compound 392] yielded an IC50 of 1.26 µM.
Work on `Cc1cc2ccc(C(C)(C#N)C3CCCc4ccccc43)cc2[nH]c1=O` (centres unmarked) [Compound 404] yielded an IC50 of 2 µM.
Work on `Cc1cc2ccc(C(C)(C#N)Cc3cccc(/C=C/CCO)c3)cc2[nH]c1=O` (centres unmarked) [Compound 409] yielded an IC50 of 1 µM.
